Columns and labels:
Assay in all cases: relative viability (nuclei count vs DMSO), 5 days (fraction); higher = more cells survive
[1] = compound: C1=CC(=CC=C1NC(=S)NNC2=C(C=C(C=C2[N+](=O)[O-])C(F)(F)F)[N+](=O)[O-])F [Kobe2602] + C[C@@H](Oc1cc(-c2cnn(C3CCNCC3)c2)cnc1N)c1c(Cl)ccc(F)c1Cl [Crizotinib] (partner 1 µM)
How it was run: (§1)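 A single step with final 0.05% Triton X-100, 1% formaldehyde and 1 ug/ml Hoechst fixed the cells and stained nuclei 5 days after treatment. Lung cancer cell lines in 1536-well plates had been treated by pin tool the day after seeding with one drug alone or a fixed anchor-drug dose plus five library-drug doses (not always all listed) in √10 steps, and nuclei were counted on 4× images. Relative viability is the ratio of nuclei in treated wells to nuclei in vehicle wells, taken as the median of duplicate plates.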

[2] = compound: C1=CC(=CC=C1NC(=S)NNC2=C(C=C(C=C2[N+](=O)[O-])C(F)(F)F)[N+](=O)[O-])F [Kobe2602] + N=C(N)NC(=N)NCCc1ccccc1 [Phenformin] (partner 250 µM)
How it was run: as §1

[3] = compound: COc1cc2nccc(Oc3ccc(NC(=O)C4(C(=O)Nc5ccc(F)cc5)CC4)cc3)c2cc1OC [Cabozantinib] + Cc1nc(Nc2ncc(C(=O)Nc3c(C)cccc3Cl)s2)cc(N2CCN(CCO)CC2)n1 [Dasatinib] (partner 0.075 µM)
How it was run: as §1

[4] = compound: O[C@@H](COc1cccc2ncccc12)CN1CCN([C@@H]2c3ccccc3[C@@H]3[C@H](c4ccccc42)C3(F)F)CC1 [Zosuquidar] + CC(C)C[C@H](NC(=O)[C@H](Cc1ccccc1)NC(=O)c1cnccn1)B(O)O [Bortezomib] (partner 0.002 µM)
How it was run: as §1

Row | Cell Line | relative viability ([1]; first compound 0.2 µM) | relative viability ([1]; first compound 0.6325 µM) | relative viability ([1]; first compound 2 µM) | relative viability ([1]; first compound 6.325 µM) | relative viability ([1]; first compound 20 µM) | relative viability ([2]; first compound 0.2 µM) | relative viability ([2]; first compound 0.6325 µM) | relative viability ([2]; first compound 2 µM) | relative viability ([2]; first compound 6.325 µM) | relative viability ([2]; first compound 20 µM) | relative viability ([3]; first compound 0.02 µM) | relative viability ([3]; first compound 0.06325 µM) | relative viability ([3]; first compound 0.2 µM) | relative viability ([3]; first compound 0.6325 µM) | relative viability ([3]; first compound 2 µM) | relative viability ([4]; first compound 0.01 µM) | relative viability ([4]; first compound 0.03162 µM) | relative viability ([4]; first compound 0.1 µM) | relative viability ([4]; first compound 0.3162 µM) | relative viability ([4]; first compound 1 µM)
1 | LCLC-103H | 1.04 | 1.02 | 1.07 | 1.02 | 1.18 | 0.359 | 0.381 | 0.32 | 0.343 | 0.351 | 0.34 | 0.552 | 0.398 | 0.486 | 0.378 | 1.02 | 1.03 | 0.836 | 1.23 | 0.926
2 | LOU-NH91 | 0.736 | 0.763 | 0.745 | 0.707 | 0.77 | 0.669 | 0.775 | 0.639 | 0.614 | 0.658 | 0.432 | 0.579 | – | 0.578 | 0.547 | 0.567 | 0.52 | 0.484 | 0.503 | 0.507
3 | LU99A | 0.557 | 0.601 | 0.571 | 0.607 | 0.641 | 0.814 | 0.916 | 0.79 | 0.906 | 0.931 | 0.461 | 0.715 | 0.412 | 0.448 | 0.523 | 1.09 | 1.14 | 1.22 | 1.34 | 1.37
4 | LXF-289 | 0.789 | 0.826 | 0.826 | 0.792 | 0.791 | 0.495 | 0.577 | 0.494 | 0.536 | 0.518 | 0.126 | 0.206 | 0.155 | 0.117 | 0.0913 | 0.993 | 1.01 | 1.01 | 0.99 | 0.976
5 | NCI-H23 | 0.5 | 0.604 | 0.392 | 0.499 | 0.619 | 0.75 | 0.782 | 0.762 | 0.723 | 0.814 | – | 1.17 | 0.808 | 0.936 | 0.598 | 0.956 | 1.24 | 1.15 | 1.3 | 1.33
6 | NCI-H322M | 0.81 | 0.95 | 0.995 | 0.893 | 0.867 | 0.798 | 0.857 | 0.808 | 0.826 | 0.771 | 0.259 | 0.271 | 0.238 | 0.264 | 0.26 | 1.27 | 1.27 | 0.827 | 1.17 | 1.12
7 | NCI-H441 | 0.719 | 0.662 | 0.606 | 0.876 | 0.713 | 0.801 | 0.81 | 0.876 | 0.814 | 0.903 | 0.431 | 0.704 | 0.458 | 0.582 | 0.51 | 0.43 | 0.476 | 0.444 | – | 0.641
8 | NCI-H460 | 0.855 | 0.905 | 0.922 | 0.893 | 0.729 | 0.516 | 0.513 | 0.614 | 0.514 | 0.499 | 0.321 | 0.607 | 0.496 | 0.493 | 0.565 | 1.01 | 1.09 | 1.14 | 1.07 | 1.1
9 | NCI-H520 | 0.694 | 0.711 | 0.746 | 0.757 | 0.763 | 0.539 | 0.582 | 0.632 | 0.654 | 0.539 | 0.18 | 0.204 | 0.215 | 0.201 | 0.199 | 0.54 | 0.591 | 0.565 | 0.743 | 0.729
10 | NCI-H596 | 0.723 | 1.03 | 0.944 | 1.21 | 1 | 0.717 | 0.816 | 0.672 | 0.614 | 0.737 | 0.509 | 0.637 | 0.558 | 0.582 | 0.544 | 0.985 | 1.09 | 0.718 | 1.02 | 1.01
11 | NCI-H647 | 1.2 | 1.24 | 0.887 | 1.07 | 1.03 | 0.554 | 0.549 | 0.655 | 0.481 | 0.441 | 0.281 | 0.17 | 0.201 | 0.147 | 0.136 | 1.01 | 0.882 | 1.27 | 1.1 | 0.996
12 | NCI-H650 | 0.683 | 0.692 | 0.854 | 0.849 | 0.636 | 0.454 | 0.538 | 0.471 | 0.457 | 0.452 | – | 0.504 | 0.452 | 0.49 | 0.445 | 0.858 | 0.863 | – | 1.01 | 0.919
13 | NCI-H661 | 0.933 | – | 0.971 | 1.06 | 1.1 | 0.273 | 0.277 | 0.261 | 0.298 | 0.298 | 0.732 | 0.838 | 0.724 | 0.767 | 0.772 | 0.875 | 0.702 | 0.628 | 1.12 | 0.949
14 | NCI-H727 | 0.767 | 0.69 | 0.776 | 0.64 | 0.865 | 0.594 | 0.559 | 0.535 | 0.52 | 0.633 | 0.298 | 0.455 | 0.284 | 0.348 | 0.298 | 0.876 | 0.938 | 0.708 | 0.787 | 0.828
15 | NCI-H838 | 0.777 | 0.964 | 0.759 | 0.909 | 0.83 | 0.549 | 0.71 | 0.574 | 0.577 | 0.554 | 0.251 | 0.309 | 0.312 | 0.338 | 0.281 | 0.824 | 0.605 | 0.749 | 0.813 | 0.884
16 | NCI-H1355 | 1.04 | 1.12 | 0.747 | 0.952 | 0.957 | 0.479 | 0.479 | 0.476 | 0.415 | 0.433 | 0.563 | 0.78 | 0.73 | 0.678 | 0.734 | 1.15 | 1.26 | 1.1 | 1.33 | 1.24

— the supplement of paper PMC10307832
